Measurements from patent publication US20060094780A1, “Novel antibiotic compounds” (priority 2000, published 2006).

Assays:
Type in all cases: cell-based
[1] = test system: Bacillus subtilis ATCC strain 6633; test: filter paper disk / disc diffusion assay on Bacillus subtilis plate
Experimental: The Bacillus subtilis ATCC strain 6633 was used at 9.2 mL of a log phase culture with […] per 200 mL of Luria-Bertani medium containing 1.5% (w/v) agar. The plate was incubated at 28° C. for 24 hours and the diameter of the clearing zone was measured. Dilutions of the extract and fractions from HPLC chromatography were tested in the same way. In some cases, fractions from the column were tested by evaporating them to dryness, redissolving in methanol and simply spotting 10 μL of the methanolic sample directly onto the bacteriological plate and proceeding as described.

[2] = test system: Bacillus subtilis ATCC strain 6633; test: NCCLS broth microdilution test, minimum inhibitory concentration; settings: for minimum inhibitory concentration / MIC: B. subtilis; for antimicrobial activity / potency (in words): against the target organism B. subtilis; for MIC: Bacillus subtilis, ATCC6633
Experimental: Minimum inhibitory concentrations with Bacillus subtilis ATCC strain 6633 were determined using the National Committee for Clinical Laboratory Standards broth microdilution test (NCCLS, 2000. NCCLS Document M7-A5—Methods for Dilution Antimicrobial Susceptibility Tests for Bacteria that Grow Aerobically, Approved Standard—Fifth Edition). The test was standardised using penicillin G and gentamicin with Staphyloccous aureus ATCC strains 29213 and 25923 and Enterococcus faecalis ATCC strain 29212. Results of standardisation were assessed according to the NCCLS standards (NCCLS, 2000. NCCLS Document M100-S10(M7)—Performance Standards for Antimicrobial Susceptibility Testing; Tenth Informational Supplement (Aerobic Dilution). NCCLS, Wayne, Pa.).

[3] = test system: NCl-H460, a human-derived small cell lung carcinoma line; test: mammalian cell growth, WST-1 proliferation assay; settings: concentrations up to 100 μg/mL, 19 hours at 37° C.
Experimental: (§1) Effects on mammalian cell growth were determined by exposing cultures of two mammalian neoplastic cell lines (SP2/0—Ag8, a non-secreting mouse myeloma cell line derived from Balb/C mice, and NCl-H460, a human-derived […] lung carcinoma line) to fixed dilutions of the methanolic extract of N. triodiae or to fixed concentrations of fraction 23, (6) for 19 hours at 37° C. Cells were grown in wells of sterile 96-well tissue culture cluster plates by standard methods. Cell growth was estimated using the Cell Proliferation Reagent WST-1 (Roche Diagnostics) according to the manufacturer's instructions and proliferation data were compared with those from untreated control wells.

[4] = test system: SP2/0—Ag8, a non-secreting mouse myeloma cell line; test: mammalian cell growth, WST-1 proliferation assay; settings: concentrations up to 30 μg/mL, 19 hours at 37° C.
Experimental: as §1

[5] = unknown concentration and mass of the compound, disc diffusion assay

1(15),8(19)-trinervitadiene-3α,5α,18-triol 3,5,18-triacetate [Compound 10]
clear zone diameter ([1]; 5 μg of compound, disc diffusion assay): 11 mm | minimum inhibitory concentration ([2]; broth microdilution, estimated): > 50 µg/mL | antimicrobial activity / potency (in words) [2]: reduced but detectable antimicrobial activity | antimicrobial activity / potency (in words) ([2]; listed as triacetate): active, albeit less potent than the diols or triol

C=C1CCC[C@H](C)CCC2=C(C)[C@@H]3[C@H]1C[C@@H](O)[C@]3(CO)[C@@H](O)C2 [Compound 6, 1(15),8(19)-trinervitadiene-3α,5α,18-triol]
antimicrobial activity of extracts and HPLC fractions (in words) ([1]; B. subtilis plate test): antimicrobial activity was detected | minimum inhibitory concentration ([2]; as restated in the discussion): ≤ 50 parts per million | MIC ([2]; broth microdilution, estimated): ≤ 50 µg/mL | antimicrobial activity / potency (in words) [2]: moderately good antimicrobial potency | inhibitory effect on proliferation of NCl-H460 cells [3]: no detectable inhibitory effect | inhibitory effect on proliferation of SP2/0 cells [4]: no detectable inhibitory effect

C=C1CCC[C@H](C)CCC2=C(C)[C@@H]3[C@H]1C[C@@H](O)[C@]3(C)[C@@H](O)C2 [Compound 7, 1(15),8(19)-trinervitadiene-3α,5α-diol]
zone of inhibition at 5 µg/disc ([1]; Bacillus subtilis, ATCC6633, 5 μg of compound, disc diffusion assay, read-out: clear zone diameter): 7 mm | MIC ([2]; broth microdilution, estimated): ≤ 50 µg/mL | antimicrobial activity / potency (in words) [2]: reduced but detectable antimicrobial activity

C=C1CCC[C@H](C)CCC2=C(C)[C@@H]3[C@H]1C[C@@H](OC(C)=O)[C@]3(CO)[C@@H](O)C2 [Compound 8, 1(15),8(19)-trinervitadiene-3α,5α,18-triol 5-acetate]
clear zone diameter [1, 5]: 15 mm | MIC ([2]; broth microdilution, estimated): > 50 µg/mL | antimicrobial activity / potency (in words) [2]: reduced but detectable antimicrobial activity | antimicrobial activity / potency (in words) ([2]; listed as monoacetate): active, albeit less potent than the diols or triol

CC1=C2CC[C@@H](C)CC/C=C(/C)[C@@H]3CC[C@@](C)([C@H]13)[C@@H](O)[C@@H]2O [Compound 9, 1(15),8(9)-trinervitadiene-2β,3α-diol]
clear zone diameter [1, 5]: 15 mm | minimum inhibitory concentration ([2]; as restated in the discussion): ≤ 25 parts per million | MIC ([2]; broth microdilution, estimated): ≤ 25 µg/mL | antimicrobial potency relative to the triol (6) and diol (7) ([2]; fold more potent): 2-4 times | significant inhibitory activity as low as ([2]; lowest concentration with significant inhibitory activity): 12 parts per million
